Data taken from patent US8900444B2, “Switchable hydrophilicity solvents and methods of use thereof” (Queen's University at Kingston, priority 2009, dated 2014).
Each block holds one molecule with its values, some of them ahead of it.

Experiments:
Assay type in all cases: physicochemical
[1] = Polarity study with solvatochromatic dye Nile Red (Example 3); settings: water-saturated BA or aqueous solution of BAB
Protocol: The maximum wavelength of absorption, λmax, of a switchable hydrophilicity solvent, N,N,N′-tributylpentanamidine (BA), was analyzed in its hydrophobic and hydrophilic forms using the solvatochromatic dye, Nile Red. A 1 Dram vial was prepared containing 1 mL of distilled water to which 1 mL of BA was added. […] This ensured saturation of the BA phase with water. The top phase comprising the BA liquid was pipetted into a quartz cuvette (Semi-Micro Cells, Self Masking Black Walls Spectrosil® Quartz, Starna Cells, Atascadero, Calif., USA) and 1 mg of Nile Red was added, to provide a bright orange-magenta solution. The ultraviolet absorbance spectrum was acquired on an Agilent Technologies ultraviolet/visible spectrometer 50-60 Hz with UV-Visible Chemstation software. The λmax was 510 nm. Distilled water (1.0 mL) was then added to the quartz cuvette and carbon dioxide was slowly bubbled into the mixture for 1 hour to switch the BA to its ionic form, N,N,N′-tributylpentanamidinium bicarbonate (BAB), after which the homogenous mixture turned purple. The ultraviolet absorbance spectrum of the aqueous solution of the dye and ionic salt was then acquired as discussed in the previous paragraph. The λmax was 570 nm.

[2] = Qualitative switchability assessment of BA (Example 1B); settings: 80 °C oil bath, stirred
Excerpt: The BA amidine's ability to act as a switchable hydrophilicity solvent for the separation of a selected substance is dependent on its ability to switch from the hydrophobic form to a hydrophilic form. This is achieved by adding water to provide an aqueous layer and decreasing the pH of the aqueous layer, namely by dissolving CO2 in the aqueous layer. When carbon dioxide dissolves in water, it forms carbonic acid with pKa1 of 6.4. The resultant dissociation is sufficient to protonate a hydrophobic amidine, causing it to become charged forming a hydrophilic amidinium bicarbonate (BAB). In this preliminary switching study, the amidine's ability to act as a base and its ability to switch hydrophilicity were studied.
Switching behavior was studied for BA over various periods of time. A glass vial (4 mL) was prepared, containing distilled water (1.0 mL) and BA amidine (0.5 mL).
CO2 was bubbled through the vial for roughly 30 minutes, until the top layer had disappeared showing that a hydrophilic solution of BAB in water had been formed.
A magnetic stirrer was placed in the vial. The vial was suspended in an 80° C. oil bath and stirred. The vial was intermittently removed from the bath and monitored for the presence of a second layer after 20, 50 and 75 minutes. The formation of a second layer (hydrophobic BA) was noted after 20 minutes in the oil bath.

[3] = Quantitative switching study of BA by 1H NMR (Example 1D)
Protocol: A methanol-d4 solution was prepared containing a sodium acetate internal standard (48.8 mM).
Two 4 mL glass vials containing 1.0 mL D2O and 0.5 mL BA were prepared and shaken. A 50 μL sample was withdrawn from each layer of one vial and combined with 0.50 mL of the sodium acetate standard solution in each of two NMR tubes: the top layer (BA) in a first tube; the bottom layer (aqueous) in a second tube.
Carbon dioxide was bubbled through the unsampled vial until the BA had completely converted to BAB, as evidenced by the disappearance of the top layer. The pH of the solution was measured using pH paper to be approximately 8-9. A 50 μL sample was withdrawn from the BAB/D2O solution and added to 0.50 mL of the sodium acetate standard solution in a third NMR tube.
The 4.0 mL vial from which the last NMR sample was withdrawn was then heated at 80° C. for 1 h and stirred by a magnetic stirrer. Bubbles of CO2 were observed escaping from the solution and a top layer, hydrophobic amidine, appeared. After cooling the vial to room temperature, a 50 μL sample was withdrawn from each layer and combined with 0.50 mL of the sodium acetate standard in two NMR tubes: the top layer (BA) in a fourth tube; the bottom layer (aqueous) in a fifth tube.
The NMR spectra of all five samples are shown in FIG. 10 with the first to fifth tubes shown from top to bottom. […] In addition, using the ‘c’ and ‘d’ protons provided stronger signals, to improve accuracy. Based on the strength of the ‘c’ and ‘d’ signals, 11% of the BA remained in the aqueous phase as BAB after the experiment
Using dioxane as the internal standard gave the same results (11% BAB retention in the aqueous phase) as sodium acetate.
The same experiment was repeated except that the temperature of the heating of the 4.0 mL vial was increased from 80° C. to 90° C. A similar retention of BAB in the aqueous phase (12%) was observed.

[4] = Miscibility of amines with water in the absence of CO2 (Example 5A); settings: 1 mL amine + 1 mL H2O, room temperature, visual
Protocol: 1 mL of an appropriate amine was combined with 1 mL of H2O in a 4 mL vial, with the 1 and 2 mL volume lines marked. The vial was manually shaken and left to settle at room temperature. After the mixture settled, the number of phases was observed visually. This procedure was performed for all of the screened amines.

[5] = Miscibility of amines with water in the presence of CO2 (Example 5B); settings: CO2 bubbled through amine/water mixture for at least one hour
Protocol: All of the amines that formed a biphasic mixture in Example 5A were subjected to the following test. Carbon dioxide was bubbled through the amine/water biphasic mixture, via a syringe needle, for at least one hour. Care was taken to regulate the rate of the CO2 bubbling, so as not to cause evaporation of the amine. The liquid-liquid interface was observed over the course of CO2 bubbling, and a photo was taken after 60 minutes.

[6] = Conversion of amine switchable hydrophilicity solvents back to hydrophobic form by heating (Example 5C); settings: for loss of amine during heating (excessive volatility): 80 °C, approximately 60 minutes
Protocol: All of the amines identified as switchable hydrophilicity solvents in Example 5B (except N,N-dimethylbutylamine) were subjected to the following test. The vial containing the single-phase amine/water/CO2 mixture prepared in example 5B was heated in an oil bath at 80° C. for approximately 60 minutes. The mixture was magnetically stirred, and phase separation was observed throughout the course of heating. In the case of the N1,N1,N4,N4-tetraethylbutane-1,4-diamine/water/CO2 mixture, 5 hours of heating was required to switch it back to its hydrophobic form.

[7] = Separation of switchable solvent from soybean oil with CO2/carbonated water (Examples 2A, 2C)
Protocol: A 4 mL vial was prepared containing 1.0 mL D2O, 0.5 mL BA and 0.5 mL soybean oil. The vial was shaken thoroughly and allowed to settle, showing a 1.0 mL upper layer (soybean oil and BA) and a 1.0 mL lower layer (D2O). ^1H NMR samples (50 μL) were withdrawn from each layer and mixed with methanol-d4 (0.5 mL) containing a dioxane internal standard (51.5 mM). Another sample was withdrawn from the upper layer for ^1H NMR analysis in CDCl3, because soybean oil is not miscible with methanol. The same volume was discarded from the bottom layer to maintain the initial ratio.
CO2 was bubbled through the system for 1.5 h, at which time the top layer appeared to have halved in volume. Using the same system, ^1H NMR analysis was again conducted on both layers, the bottom layer in methanol-d4 and the top layer in CDCl3.
A 1.0 mL portion of the bottom layer was withdrawn and transferred to a new 4.0 mL vial. A magnetic stirrer was added and the vial was stirred at 80° C. for 1 h. Samples were withdrawn from both layers for ^1H NMR analysis in methanol-d4 with reference to the dioxane internal standard.
The switching behavior of BA in the presence of soybean oil was studied qualitatively and by ^1H NMR spectroscopy as shown in FIG. 11. The top spectrum is that of soy oil. The middle spectrum is that of the upper (organic) phase after the mixing of the BA, soy oil and D2O. This upper phase comprises soy oil and BA. The bottom spectrum is that of the upper (organic) phase after the addition of the CO2 trigger and comprises predominantly soy oil and any residual solvent.
The most informative ^1H NMR spectra in this experiment were those showing the separation of the soy oil and BA. Based on the integration of the peak corresponding to BA at 3.17 ppm in these spectra, 96% of the amidine was removed from the upper soybean oil layer after switching to its hydrophilic BAB form. Other spectra (not shown), collected in methanol-d4 with a dioxane internal standard, confirmed the switching behavior presented in Example 1 above, showing 11% retention of BA in the aqueous phase after heating.
It was possible to remove a high percentage of N1,N1,N4,N4-tetraethylbutane-1,4-diamine from the soybean oil be mixing with carbonated water. The percentage removal was 98.65%. In contrast, 96% of BA was removed from the soybean oil.

[8] = Visual and NMR study of amine switchable hydrophilicity solvents (Example 6)
Protocol: The following amines were evaluated in this series of experiments: N-ethylpiperidine, N,N-dimethylcyclohexylamine, and N,N-dimethylhexylamine. The sequence of experiments is described for one amine but was performed for all three. The visual observations are described in Table 3. 1,4-Dioxane was used as an internal standard for NMR spectroscopy.
Amine (1 mL) was combined with D2O (1 mL) in a 10 mL graduated cylinder, which was then capped with a rubber septum. The cylinder was manually shaken and left to settle at room temperature, after which the mixture appeared as two transparent liquid phases. For each amine, this procedure was simultaneously conducted in 3 identical cylinders. From the aqueous (bottom) layer of one of the three cylinders, three 250 μL samples were withdrawn, combined with equal volumes of D2O and dioxane internal standard, and analyzed by ^1H NMR spectroscopy. The spectra were consistent with the amine in the aqueous phase being in its neutral form. The graduated cylinder from which the samples were taken was discarded.
For each of two remaining graduated cylinders, carbon dioxide was bubbled through the amine/water biphasic mixture, via a syringe needle, for at least one hour. Care was taken to regulate the rate of the CO2 bubbling, so as not to cause significant evaporation of the amine. The mixture changed from a biphasic liquid mixture to a single homogeneous liquid phase. From one of the two graduated cylinders, a 300 μL sample of the homogenous liquid phase was withdrawn and mixed with an equal volume of D2O and a known quantity of dioxane internal standard. […] The graduated cylinder from which the sample was taken was discarded.
The remaining graduated cylinder, containing the single-phase amine/water/CO2 mixture prepared above, was heated in an oil bath at 80 deg. C for 1 hour. Phase separation was observed. Three 250 μL samples of the aqueous (bottom) layer were withdrawn, combined with equal volumes of D2O and a known quantity of dioxane internal standard, and analyzed by NMR spectroscopy.

[9] = CO2 bubbling time to phase merge with and without piperazine; settings: 5 mL amine + 5 mL water, room temperature, CO2 100 mL/min
Protocol: In some embodiments, addition of a small amount of piperazine further increases the rate of conversion of a switchable hydrophilicity solvent to its ionic form. […] In the presence of an absorption activator, specifically 10 wt % piperazine, the time of CO2 bubbling to phase merge was only 20 minutes. Although not experimentally shown, the inventors expect that piperazine would have a similar absorption activating effect for compounds of formula (1). A similar improvement in CO2 capture for aqueous solutions of tertiary amines was reported by Dubois (Chem. Eng. Tech. 32(5): 710 (2009)).

[10] = listed as N,N-dimethyl-N-cyclohexylamine

SMILES: CCCCN=C(CCCC)N(CCCC)CCCC.O=C(O)O [BAB, N,N,N′-tributylpentanamidinium bicarbonate]
maximum wavelength of absorption (λmax) of Nile Red [1]: 570 nm
heating time to formation of second (hydrophobic) layer [2]: 20 min
BAB retention in the aqueous phase after heating ([3]; 80 °C, 1 h, dioxane internal standard): 11%
retention of BAB in the aqueous phase after heating ([3]; 90 °C): 12%
pH of solution after complete conversion with CO2 ([3]; BAB/D2O solution, pH paper): 8-9
BAB ionic form converted back to BA ([3]; after heating for 1 hour): > 90%

SMILES: CCN(CC)CCCCN(CC)CC [N1,N1,N4,N4-tetraethylbutane-1,4-diamine]
miscibility with water under air (absence of CO2) [4]: biphasic
miscibility with water under air (absence of CO2) ([4]; listed as Et2NCH2CH2CH2CH2NEt2): immiscible
miscibility with water after CO2 treatment [5]: single-phase
miscibility with water after CO2 treatment ([5]; listed as Et2NCH2CH2CH2CH2NEt2): miscible
solvent removed from soybean oil after switching to hydrophilic form ([7]; CO2 / carbonated water): 98.65%
miscibility with soybean oil ([7]; neutral hydrophobic form): miscible with soybean oil
heating time required to switch back to hydrophobic form ([6]; amine/water/CO2 mixture, oil bath 80 °C, stirred): 5 h

SMILES: CN(C)C1CCCCC1 [N,N-dimethylcyclohexylamine]
miscibility with water under air (absence of CO2) [4]: biphasic
miscibility with water under air (absence of CO2) [4, 10]: immiscible with water
time of CO2 bubbling to form one homogeneous solution ([8]; 1 mL amine + 1 mL D2O): took 45 min to form one
number of layers formed without CO2 ([8]; 1 mL amine + 1 mL D2O, room temperature): formed 2 clear,
time of heating to separate into 2 layers ([8]; oil bath 80 deg. C): after 30 min, solution has
volume of bottom (aqueous) layer after heating ([8]; oil bath 80 deg. C): clear & colorless, with volume of 1 mL,
volume of top layer after heating ([8]; oil bath 80 deg. C): oily, with volume of 0.8 mL
miscibility with water after CO2 treatment [5]: single-phase
miscibility with water after CO2 treatment [5, 10]: became water-miscible
time of CO2 bubbling to phase merge ([9]; 10 wt % piperazine): 20 min
time of CO2 bubbling for phase merge ([9]; absence of piperazine): 35 min

Other lines, results leading:

miscibility with water under air (absence of CO2) [4]: biphasic
miscibility with water under air (absence of CO2) ([4]; listed as dipropylmethylamine): immiscible with water
miscibility with water after CO2 treatment [5]: single-phase
miscibility with water after CO2 treatment ([5]; listed as dipropylmethylamine): became water-miscible
loss of amine during heating (excessive volatility) [6]: loss of amine
SMILES: CCCN(C)CCC [methyldipropylamine]

miscibility with water under air (absence of CO2) [4]: biphasic
miscibility with water under air (absence of CO2) ([4]; listed as diethylbutylamine): immiscible with water
miscibility with water after CO2 treatment [5]: single-phase
miscibility with water after CO2 treatment ([5]; listed as diethylbutylamine): became water-miscible
loss of amine during heating (excessive volatility) [6]: loss of amine
SMILES: CCCCN(CC)CC [N,N-diethylbutylamine]
